Measured values from patent US6737383B1, “Herbicidal oxadiazolidines” (priority 1999, dated 2004).

How the values were obtained:
wheat = experiment: Test B pre/postemergence wheat; assay type: in vivo, Triticum aestivum; details: Preemergence, scale of 0 to 10 where 0 is no effect and 10 is complete control
Source text: (§1) Seeds of bedstraw (Galium aparine), blackgrass (Alopecurus myosuroides), surinam grass (Brachiaria decumbens), cocklebur (Xanthium strumarium), corn (Zea mays), crabgrass (Digitaria sanguinalis), giant foxtail (Setaria faberii), morningglory (Ipomoea hederacea), pigweed (Amaranthus retroflexus), rape (Brassica napus), soybean (Glycine max), sugar beet (Beta vulgaris), velvetleaf (Abutilon theophrasti), wheat (Triticum aestivum), wild oat (Avena fatua) and purple nutsedge (Cyperus rotundus) tubers were planted and treated preemnergence with test chemicals formulated in a non-phytotoxic solvent mixture which included a surfactant.
(§2) At the same time, these crop and weed species were also treated with postemergence applications of test chemicals formulated in the same manner. Plants ranged in height from 2 to 18 cm (1- to 4-leaf stage) for postemergence treatments. Plant species in the flood test consisted of rice (Oryza sativa), smallflower flatsedge (Cyperus difformis), duck salad (Heteranthera limosa) and bamyardgrass (Echinochloa crus-galli) grown to the 2-leaf stage for testing. Treated plants and controls were maintained in a greenhouse for twelve to sixteen days, after which all species were compared to controls and visually evaluated. Plant response ratings, summarized in Table B, are based on a scale of 0 to 10 where 0 is no effect and 10 is complete control. A dash (−) response means no test result.

blackgrass = experiment: Test B pre/postemergence blackgrass; assay type: in vivo, Alopecurus myosuroides; details: Preemergence
Source text: as §1, §2

corn = experiment: Test B pre/postemergence corn; assay type: in vivo, Zea mays; details: Preemergence
Source text: as §1, §2

rape = experiment: Test B pre/postemergence rape; assay type: in vivo, Brassica napus; details: Preemergence, scale of 0 to 10 where 0 is no effect and 10 is complete control
Source text: as §1, §2

cocklebur = experiment: Test B pre/postemergence cocklebur; assay type: in vivo, Xanthium strumarium; details: Preemergence
Source text: as §1, §2

velvetleaf = experiment: Test B pre/postemergence velvetleaf; assay type: in vivo, Abutilon theophrasti; details: Preemergence, scale of 0 to 10 where 0 is no effect and 10 is complete control
Source text: as §1, §2

pigweed = experiment: Test B pre/postemergence pigweed; assay type: in vivo, Amaranthus retroflexus; details: Preemergence, scale of 0 to 10 where 0 is no effect and 10 is complete control
Source text: as §1, §2

sugar beet = experiment: Test B pre/postemergence sugar beet; assay type: in vivo, Beta vulgaris; details: Preemergence, scale of 0 to 10 where 0 is no effect and 10 is complete control
Source text: as §1, §2

giant foxtail = experiment: Test B pre/postemergence giant foxtail; assay type: in vivo, Setaria faberii; details: Preemergence, scale of 0 to 10 where 0 is no effect and 10 is complete control
Source text: as §1, §2

surinam grass = experiment: Test B pre/postemergence surinam grass; assay type: in vivo, Brachiaria decumbens; details: Preemergence
Source text: as §1, §2

morningglory = experiment: Test B pre/postemergence morningglory; assay type: in vivo, Ipomoea hederacea; details: Preemergence, scale of 0 to 10 where 0 is no effect and 10 is complete control
Source text: as §1, §2

soybean = experiment: Test B pre/postemergence soybean; assay type: in vivo, Glycine max; details: Preemergence, scale of 0 to 10 where 0 is no effect and 10 is complete control
Source text: as §1, §2

bedstraw = experiment: Test B pre/postemergence bedstraw; assay type: in vivo, Galium aparine; details: Preemergence
Source text: as §1, §2

crabgrass = experiment: Test B pre/postemergence crabgrass; assay type: in vivo, Digitaria sanguinalis; details: Preemergence
Source text: as §1, §2

wild oat = experiment: Test B pre/postemergence wild oat; assay type: in vivo, Avena fatua; details: Preemergence, scale of 0 to 10 where 0 is no effect and 10 is complete control
Source text: as §1, §2

purple nutsedge = experiment: Test B pre/postemergence purple nutsedge; assay type: in vivo, Cyperus rotundus; details: Preemergence, Rate 125 g/ha; scale of 0 to 10 where 0 is no effect and 10 is complete control
Procedure, shortened: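 Response is a visual 0-to-10 score relative to untreated plants, where 0 means no effect and 10 means complete control, taken twelve to sixteen days after application. Treatments went onto soil at planting and onto foliage of 1- to 4-leaf plants, using a surfactant-containing non-phytotoxic solvent.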

[1] = Rate 62 g/ha, scale of 0 to 10 where 0 is no effect and 10 is complete control
[2] = Rate 125 g/ha, scale of 0 to 10 where 0 is no effect and 10 is complete control
[3] = Rate 250 g/ha, scale 0 to 10 (0 no effect, 10 complete control)
[4] = Rate 500 g/ha, scale of 0 to 10 where 0 is no effect and 10 is complete control

CC(C)N(C(=O)n1oc(=O)n(C(C)C=O)c1=O)c1ccccc1 (centres unmarked) [Compound 693]
2: Plant response rating, Blackgrass (blackgrass; [4])
0: Wheat plant response rating (wheat; Rate 62 g/ha) | Plant response rating, Wheat (wheat; Rate 125 g/ha) | Blackgrass plant response rating (blackgrass; [1]) | Plant response rating, Blackgrass (blackgrass; [2]) | Plant response rating, Blackgrass (blackgrass; [3]) | Corn plant response rating (corn; [1]) | Plant response rating, Corn (corn; [2]) | Plant response rating, Corn (corn; [3]) | Rape plant response rating (rape; Rate 62 g/ha) | Plant response rating, Rape (rape; Rate 125 g/ha) | Cocklebur plant response rating (cocklebur; [1]) | Plant response rating, Cocklebur (cocklebur; [2]) | Plant response rating, Cocklebur (cocklebur; [3]) | Plant response rating, Cocklebur (cocklebur; [4]) | Velvetleaf plant response rating (velvetleaf; Rate 62 g/ha) | Plant response rating, Velvetleaf (velvetleaf; Rate 125 g/ha) | Redroot pigweed plant response rating (pigweed; Rate 62 g/ha) | Plant response rating, Redroot pigweed (pigweed; Rate 125 g/ha) | Sugarbeets plant response rating (sugar beet; Rate 62 g/ha) | Plant response rating, Sugarbeets (sugar beet; Rate 125 g/ha) | Giant foxtail plant response rating (giant foxtail; Rate 62 g/ha) | Plant response rating, Giant foxtail (giant foxtail; Rate 125 g/ha) | B. signalgrass plant response rating (surinam grass; [1]) | Plant response rating, B. signalgrass (surinam grass; [2]) | Plant response rating, B. signalgrass (surinam grass; [3]) | Plant response rating, B. signalgrass (surinam grass; [4]) | Morningglory plant response rating (morningglory; Rate 62 g/ha) | Plant response rating, Morningglory (morningglory; Rate 125 g/ha) | Soybean plant response rating (soybean; Rate 62 g/ha) | Plant response rating, Soybean (soybean; Rate 125 g/ha) | Bedstraw plant response rating (bedstraw; [1]) | Plant response rating, Bedstraw (bedstraw; [2]) | Plant response rating, Bedstraw (bedstraw; [3]) | Plant response rating, Bedstraw (bedstraw; [4]) | Crabgrass plant response rating (crabgrass; [1]) | Plant response rating, Crabgrass (crabgrass; [2]) | Plant response rating, Crabgrass (crabgrass; [3]) | Wild oats plant response rating (wild oat; Rate 62 g/ha) | Plant response rating, Wild oats (wild oat; Rate 125 g/ha) | Plant response rating, Nutsedge (purple nutsedge)
